Source: ChEMBL document CHEMBL4376829, “Discovery and biological evaluation of vinylsulfonamide derivatives as highly potent, covalent TEAD autopalmitoylation inhibitors” (Eur J Med Chem, 2019)
The source made the active and inactive calls. The rule behind the calls is not given here.

Tests used:
[1] = target: Cyclin-dependent kinase-like 2 (Homo sapiens) (UniProt Q92772); assay: Inhibition of human CDKL2 at 10 uM by radiometric method relative to control
[2] = target: Serine/threonine-protein kinase 24 (Homo sapiens) (UniProt Q9Y6E0); assay: Inhibition of recombinant human MST3 (1 to 304 residues) at 10 uM using ERMRPRKRQGSVRRRV as substrate measured after 40 mins in presence of [gamma33P]ATP by scintillation counting method relative to control
Chain of Serine/threonine-protein kinase 24 (Homo sapiens) (Q9Y6E0 whole entry, looked up, the tested form may be a part): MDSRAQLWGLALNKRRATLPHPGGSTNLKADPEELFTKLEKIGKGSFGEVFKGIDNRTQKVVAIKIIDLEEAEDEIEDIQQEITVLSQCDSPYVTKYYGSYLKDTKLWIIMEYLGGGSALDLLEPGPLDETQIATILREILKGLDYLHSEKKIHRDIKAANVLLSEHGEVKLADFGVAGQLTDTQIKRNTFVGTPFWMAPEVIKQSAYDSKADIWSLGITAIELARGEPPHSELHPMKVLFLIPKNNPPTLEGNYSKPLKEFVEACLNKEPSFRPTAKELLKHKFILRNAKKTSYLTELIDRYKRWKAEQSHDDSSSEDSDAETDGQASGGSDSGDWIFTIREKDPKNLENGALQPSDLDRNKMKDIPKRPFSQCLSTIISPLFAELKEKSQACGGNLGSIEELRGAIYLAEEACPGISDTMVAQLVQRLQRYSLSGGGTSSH

[3] = target: Macrophage colony-stimulating factor 1 receptor (Homo sapiens) (UniProt P07333); assay: Inhibition of recombinant human FMS (538 to end residues) at 10 uM using KKKSPGEYVNIEFG as substrate after 40 mins in presence of [gamma33P]ATP by scintillation counting method relative to control
[4] = target: Death-associated protein kinase 2 (Homo sapiens) (UniProt Q9UIK4); assay: Inhibition of full-length recombinant human DAPK2 at 10 uM using calmodulin as substrate after 40 mins by in presence of [gamma33P]ATP by scintillation counting method relative to control
[5] = target: Wee1-like protein kinase (Homo sapiens) (UniProt P30291); assay: Inhibition of recombinant human Wee1 (214 to end residues) at 10 uM using LSNLYHQGKFLQTFCGSPLYRRR as substrate measured after 40 mins in presence of [gamm33P]ATP by scintillation counting method relative to control
[6] = target: T1, Transcriptional enhancer factor TEF-3 (Homo sapiens, UniProt Q15561); assay: Binding affinity to N-terminal His6-tagged human TEAD4-YBD (217 to 434 residues) expressed in Escherichia coli C43 (DE3) cells assessed as change in melting temperature at 1:1 ratio by SYPRO-dye based thermal shift assay
T1 sequence (Q15561 whole entry, the tested form may be a part): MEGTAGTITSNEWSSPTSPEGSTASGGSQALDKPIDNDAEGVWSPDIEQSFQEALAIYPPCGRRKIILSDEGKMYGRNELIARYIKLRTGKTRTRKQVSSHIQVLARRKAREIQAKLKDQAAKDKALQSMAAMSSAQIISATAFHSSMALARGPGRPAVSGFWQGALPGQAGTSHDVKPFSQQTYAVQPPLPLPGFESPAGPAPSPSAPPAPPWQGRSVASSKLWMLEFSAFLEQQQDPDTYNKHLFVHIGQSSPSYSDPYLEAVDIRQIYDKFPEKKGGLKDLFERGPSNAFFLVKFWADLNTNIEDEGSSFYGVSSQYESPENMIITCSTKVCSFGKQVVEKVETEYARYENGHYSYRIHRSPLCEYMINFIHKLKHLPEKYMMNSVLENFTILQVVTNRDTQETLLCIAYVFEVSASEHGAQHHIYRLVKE

[7] = target: Protein kinase C beta type (Homo sapiens) (UniProt P05771); assay: Inhibition of recombinant human PKCbeta2 (2 to end residues) at 10 uM using histone H1 as substrate after 40 mins by in presence of [gamma33P]ATP by scintillation counting method relative to control
[8] = target: Transcription initiation factor TFIID subunit 1-like (Homo sapiens) (UniProt Q8IZX4); assay: Inhibition of recombinant human TAF1L (1428 to end residues) at 10 uM using RRRFRPASPLRGPPK as substrate measured after 120 mins in presence of [gamma33P]ATP by scintillation counting method relative to control
[9] = target: Serine/threonine-protein kinase PLK1 (Homo sapiens) (UniProt P53350); assay: Inhibition of full length recombinant human Plk1 at 10 uM using casein as substrate after 40 mins in presence of [gamma33P]ATP by scintillation counting method relative to control
Chain of Serine/threonine-protein kinase PLK1 (Homo sapiens) (P53350 whole entry): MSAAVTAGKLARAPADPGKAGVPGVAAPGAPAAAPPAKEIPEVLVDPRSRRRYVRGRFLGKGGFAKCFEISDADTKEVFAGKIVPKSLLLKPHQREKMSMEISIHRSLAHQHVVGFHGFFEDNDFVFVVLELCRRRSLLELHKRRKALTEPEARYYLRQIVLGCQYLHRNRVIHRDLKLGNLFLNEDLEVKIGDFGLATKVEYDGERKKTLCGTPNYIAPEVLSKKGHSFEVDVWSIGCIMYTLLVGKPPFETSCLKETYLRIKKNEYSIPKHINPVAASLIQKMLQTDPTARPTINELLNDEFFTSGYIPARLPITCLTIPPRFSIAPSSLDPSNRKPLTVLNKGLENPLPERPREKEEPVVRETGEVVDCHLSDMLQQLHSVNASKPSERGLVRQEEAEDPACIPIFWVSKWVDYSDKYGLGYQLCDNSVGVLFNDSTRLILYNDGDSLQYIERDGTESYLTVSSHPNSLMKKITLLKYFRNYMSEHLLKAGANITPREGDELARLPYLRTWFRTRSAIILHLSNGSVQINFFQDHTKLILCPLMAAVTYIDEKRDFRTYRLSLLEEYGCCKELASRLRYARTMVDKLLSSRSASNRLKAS

[10] = target: Serine/threonine-protein kinase Nek2 (Homo sapiens) (UniProt P51955); assay: Inhibition of recombinant human full length NEK2 at 10 uM using myelin basic protein as substrate incubated for 40 mins in presence of [gamma-33P]-ATP by scintillation counting method relative to control
Chain of Serine/threonine-protein kinase Nek2 (Homo sapiens) (P51955 whole entry): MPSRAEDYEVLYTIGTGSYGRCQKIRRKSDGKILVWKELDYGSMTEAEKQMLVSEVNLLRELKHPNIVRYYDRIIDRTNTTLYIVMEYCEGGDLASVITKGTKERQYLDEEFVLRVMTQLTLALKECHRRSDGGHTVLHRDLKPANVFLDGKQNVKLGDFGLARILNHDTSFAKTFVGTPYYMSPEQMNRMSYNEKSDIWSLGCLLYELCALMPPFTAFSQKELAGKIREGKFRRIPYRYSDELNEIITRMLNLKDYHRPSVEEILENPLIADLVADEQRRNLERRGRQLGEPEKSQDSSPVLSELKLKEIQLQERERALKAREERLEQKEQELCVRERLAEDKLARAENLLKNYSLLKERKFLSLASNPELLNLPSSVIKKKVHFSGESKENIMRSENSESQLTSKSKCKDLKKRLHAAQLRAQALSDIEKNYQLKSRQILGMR

[11] = test system: Transcriptional enhancer factor TEF-3 (Homo sapiens), Q15561 [C330A]; assay: Binding affinity to TEAD4-YBD C330A mutant (unknown origin) assessed as change in melting temperature by SYPRO-dye based thermal shift assay
[12] = target: Serine/threonine-protein kinase B-raf (Homo sapiens) (UniProt P15056); assay: Inhibition of recombinant human BRAF (416 to end residues) at 10 uM using myelin basic protein as substrate after 40 mins in presence of [gamma33P]ATP by scintillation counting method relative to control
Chain of Serine/threonine-protein kinase B-raf (Homo sapiens) (P15056 whole entry): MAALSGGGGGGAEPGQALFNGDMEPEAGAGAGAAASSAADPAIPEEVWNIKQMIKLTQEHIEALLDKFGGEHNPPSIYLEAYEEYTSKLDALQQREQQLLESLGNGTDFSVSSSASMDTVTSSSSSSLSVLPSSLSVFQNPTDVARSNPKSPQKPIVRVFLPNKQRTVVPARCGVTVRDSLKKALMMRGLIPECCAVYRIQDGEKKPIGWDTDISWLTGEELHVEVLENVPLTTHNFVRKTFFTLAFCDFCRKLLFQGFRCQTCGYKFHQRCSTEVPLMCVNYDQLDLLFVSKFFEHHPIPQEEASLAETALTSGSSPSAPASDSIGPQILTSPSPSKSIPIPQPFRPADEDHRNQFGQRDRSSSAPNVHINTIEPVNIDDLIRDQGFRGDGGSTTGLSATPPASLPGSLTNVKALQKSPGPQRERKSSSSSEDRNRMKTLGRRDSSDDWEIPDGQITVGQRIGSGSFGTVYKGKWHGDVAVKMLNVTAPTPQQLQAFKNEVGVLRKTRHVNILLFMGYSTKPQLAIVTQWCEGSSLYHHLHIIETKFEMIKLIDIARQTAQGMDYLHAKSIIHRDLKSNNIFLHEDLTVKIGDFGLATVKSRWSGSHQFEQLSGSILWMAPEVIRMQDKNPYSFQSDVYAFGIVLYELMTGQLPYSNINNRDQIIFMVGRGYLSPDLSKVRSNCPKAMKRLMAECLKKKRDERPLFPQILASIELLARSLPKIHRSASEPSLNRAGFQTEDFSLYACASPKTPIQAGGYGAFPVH

[13] = CoA reactivity in PBS assessed as CoA adduct formation at 1 mM after 8 hrs by UPLC-MS analysis
[14] = target: T1, Transcriptional enhancer factor TEF-3; assay: Inhibition of human HEK293T cells derived YAP interaction with N-terminal His-tagged human TEAD4 YBD domain (217 to 434 residues) expressed in Escherichia coli C43 (DE3) cells at 25 to 200 uM incubated for 2 hrs with TEAD4 followed by YAP lysate addition and measured after 4 hrs by immunoblotting analysis
[15] = target: Serine/threonine-protein kinase 4 (Homo sapiens) (UniProt Q13043); assay: Inhibition of recombinant full-length human MST1 at 10 uM using KKSRGDYMTMQIG as substrate measured after 40 mins in presence of [gamma33P]ATP by scintillation counting method relative to control
[16] = target: Serine/threonine-protein kinase STK11 (Homo sapiens) (UniProt Q15831); assay: Inhibition of recombinant full-length human LKB1 at 10 uM using LSNLYHQGKFLQTFCGSPLYRRR as substrate measured after 40 mins in presence of [gamm33P]ATP by scintillation counting method relative to control
[17] = target: T1, Transcriptional enhancer factor TEF-3; assay: (§1) Inhibition of N-terminal His6 tagged human TEAD4-YBD (217 to 434 residues) expressed in Escherichia coli C43 (DE3) cells assessed as reduction in autopalmitoylation at 800 nM preincubated for 2 hrs followed by palmitoyl alkyne-coenzyme A addition and measured after 30 mins by immunoblot analysis relative to control
[18] = target: T1, Transcriptional enhancer factor TEF-3; assay: as §1, with “200” for “800”, “mins” for “mins by”
[19] = target: Myosin-IIIb (Homo sapiens) (UniProt Q8WXR4); assay: Inhibition of recombinant full-length human MYO3B (1 to 326 residues) at 10 uM using RLGRDKYKTLRQIRQ as substrate measured after 40 mins in presence of [gamma33P]ATP by scintillation counting method relative to control
Chain of Myosin-IIIb (Homo sapiens) (Q8WXR4 whole entry, the tested form may be a part): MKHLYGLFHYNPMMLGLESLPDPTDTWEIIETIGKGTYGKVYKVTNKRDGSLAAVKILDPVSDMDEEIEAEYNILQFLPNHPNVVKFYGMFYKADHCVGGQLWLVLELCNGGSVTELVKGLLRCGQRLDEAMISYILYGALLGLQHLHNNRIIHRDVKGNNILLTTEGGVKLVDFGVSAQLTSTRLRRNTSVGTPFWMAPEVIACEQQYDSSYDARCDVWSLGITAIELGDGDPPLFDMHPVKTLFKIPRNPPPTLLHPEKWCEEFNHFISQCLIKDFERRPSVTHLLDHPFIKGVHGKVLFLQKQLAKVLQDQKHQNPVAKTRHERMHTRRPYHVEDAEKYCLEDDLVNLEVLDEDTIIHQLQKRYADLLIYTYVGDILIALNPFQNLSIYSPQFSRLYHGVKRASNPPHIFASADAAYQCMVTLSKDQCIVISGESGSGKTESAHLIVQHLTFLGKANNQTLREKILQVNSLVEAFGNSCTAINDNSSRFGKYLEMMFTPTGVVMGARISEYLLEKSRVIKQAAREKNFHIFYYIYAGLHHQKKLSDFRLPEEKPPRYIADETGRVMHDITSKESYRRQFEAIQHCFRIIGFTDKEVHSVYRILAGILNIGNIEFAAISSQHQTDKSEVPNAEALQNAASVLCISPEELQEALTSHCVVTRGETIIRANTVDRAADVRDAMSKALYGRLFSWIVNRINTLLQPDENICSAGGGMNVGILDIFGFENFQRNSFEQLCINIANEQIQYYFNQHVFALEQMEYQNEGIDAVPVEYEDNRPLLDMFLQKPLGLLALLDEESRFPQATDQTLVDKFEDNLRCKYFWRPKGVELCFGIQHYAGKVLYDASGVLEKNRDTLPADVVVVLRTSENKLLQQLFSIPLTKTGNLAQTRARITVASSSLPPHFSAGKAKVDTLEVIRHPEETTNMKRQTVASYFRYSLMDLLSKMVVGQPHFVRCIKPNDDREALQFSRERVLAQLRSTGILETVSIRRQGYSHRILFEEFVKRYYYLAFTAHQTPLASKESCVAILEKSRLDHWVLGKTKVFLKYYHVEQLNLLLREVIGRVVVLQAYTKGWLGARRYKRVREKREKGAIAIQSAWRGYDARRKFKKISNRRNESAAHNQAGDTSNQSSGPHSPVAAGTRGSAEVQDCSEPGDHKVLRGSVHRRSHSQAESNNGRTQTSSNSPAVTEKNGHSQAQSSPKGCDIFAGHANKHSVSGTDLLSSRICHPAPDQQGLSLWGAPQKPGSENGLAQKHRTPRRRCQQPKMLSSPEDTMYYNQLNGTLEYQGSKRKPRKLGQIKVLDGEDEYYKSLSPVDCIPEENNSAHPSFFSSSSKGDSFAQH

[20] = target: Phosphatidylinositol 4-phosphate 5-kinase type-1 gamma (Homo sapiens) (UniProt O60331); assay: Inhibition of recombinant full-length human PIP5K1g at 10 uM using phosphatidylinositol 4-phosphate as substrate measured after 40 mins by fluorescence assay relative to control
[21] = target: Serine/threonine-protein kinase TAO2 (Homo sapiens) (UniProt Q9UL54); assay: Inhibition of recombinant human TAO2 (1 to 320 residues) at 10 uM using myelin basic protein as substrate measured after 40 mins in presence of [gamm33P]ATP by scintillation counting method relative to control
[22] = target: T1, Transcriptional enhancer factor TEF-3; assay: Binding affinity to N-terminal His6-tagged human TEAD4-YBD (217 to 434 residues) expressed in Escherichia coli C43 (DE3) cells assessed as change in melting temperature at 1:4 ratio by SYPRO-dye based thermal shift assay
[23] = target: Fatty acid-binding protein, adipocyte (Homo sapiens) (UniProt P15090); assay: Binding affinity to FABP4 (unknown origin) at 1:1 ratio by fluorescence based thermal shift assay
[24] = target: T1, Transcriptional enhancer factor TEF-3; assay: Binding affinity to N-terminal His6 tagged human TEAD4-YBD (217 to 434 residues) expressed in Escherichia coli C43 (DE3) cells assessed as covalent modification by measuring change in protein mass by mass spectral analysis
[25] = target: Protein-tyrosine kinase 6 (Homo sapiens) (UniProt Q13882); assay: Inhibition of full-length recombinant human BRK at 10 uM using poly(Glu, Tyr) 4:1 as substrate measured after 40 mins in presence of [gamma33P]ATP by scintillation counting method relative to control
Chain of Protein-tyrosine kinase 6 (Homo sapiens) (Q13882 whole entry, looked up, the tested form may be a part): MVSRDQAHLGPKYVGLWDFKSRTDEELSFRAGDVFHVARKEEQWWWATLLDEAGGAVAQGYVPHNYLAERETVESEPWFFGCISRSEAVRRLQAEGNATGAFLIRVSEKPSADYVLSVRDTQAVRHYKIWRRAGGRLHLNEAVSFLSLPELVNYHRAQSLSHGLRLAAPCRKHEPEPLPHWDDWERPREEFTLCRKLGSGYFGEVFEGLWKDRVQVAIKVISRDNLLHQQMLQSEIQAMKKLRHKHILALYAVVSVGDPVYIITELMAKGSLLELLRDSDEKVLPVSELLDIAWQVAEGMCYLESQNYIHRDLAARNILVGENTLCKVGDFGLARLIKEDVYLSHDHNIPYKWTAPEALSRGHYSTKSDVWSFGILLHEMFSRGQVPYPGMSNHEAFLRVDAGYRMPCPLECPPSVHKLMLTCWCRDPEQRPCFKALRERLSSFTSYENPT

[26] = target: Fibroblast growth factor receptor 4 (Homo sapiens) (UniProt P22455); assay: Inhibition of recombinant human FGFR4 (442 to 755 residues) at 10 uM using poly(Glu, Tyr) 4:1 as substrate measured after 40 mins in presence of [gamma33P]ATP by scintillation counting method relative to control

Chain of Cyclin-dependent kinase-like 2 (Homo sapiens) (Q92772 whole entry, the tested form may be a part): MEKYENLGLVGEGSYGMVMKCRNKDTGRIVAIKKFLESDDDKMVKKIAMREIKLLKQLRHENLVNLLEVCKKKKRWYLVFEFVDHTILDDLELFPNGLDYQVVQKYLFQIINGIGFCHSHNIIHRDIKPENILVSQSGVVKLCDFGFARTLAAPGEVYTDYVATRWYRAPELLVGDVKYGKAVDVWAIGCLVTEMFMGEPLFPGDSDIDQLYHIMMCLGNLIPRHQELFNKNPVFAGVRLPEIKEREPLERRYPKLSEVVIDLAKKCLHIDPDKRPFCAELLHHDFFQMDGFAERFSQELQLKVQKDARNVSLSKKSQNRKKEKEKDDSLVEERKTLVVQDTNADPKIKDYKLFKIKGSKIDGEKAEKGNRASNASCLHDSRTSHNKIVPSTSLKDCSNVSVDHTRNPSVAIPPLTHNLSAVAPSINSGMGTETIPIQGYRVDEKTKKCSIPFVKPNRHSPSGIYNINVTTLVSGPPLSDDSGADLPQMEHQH

With C=CS(=O)(=O)Nc1ccc(Cc2ccc3ccccc3c2)cc1 the inhibition [1] was 3%, the inhibition [2] was 3% and the inhibition [3] was 3%. For the same compound, the inhibition [4] was -7%, the inhibition [5] was -4% and the ΔTm [6] was 7 to 7.2 °C. The inhibition [7] was 4%, the inhibition [8] was -4% and the inhibition [9] was -10%. For the same compound, the inhibition [10] was -5%, the ΔTm [11] was 6.4 °C and the inhibition [12] was -8%. For the same compound, the Activity [13] was “inactive”, the inhibition [14] was “Active” and the inhibition [15] was 0%. It also gave an inhibition [16] of -3%, an inhibition [17] of 91.6% and an inhibition [18] of 72.5%. It also gave an inhibition [19] of 1%, an inhibition [20] of -3% and an inhibition [21] of 22%. The ΔTm [22] was 7.5 °C, the Activity [23] was “Active” and the Activity [24] was “Active”. For the same compound, the inhibition [25] was -6% and the inhibition [26] was -4%.
